Reference: patent US20230088214A1, “GLYCOLATE OXIDASE INHIBITORS FOR THE TREATMENT OF DISEASE” (BIOMARIN PHARMACEUTICAL INC., priority 2019, published 2023)

How the values were obtained:
[1] = target: T1, GO (Homo sapiens, UniProt Q9UJM8); experiment: GO Cellular Assay: CHO-Agt Cells Assay (Assay 3); type: cell-based, Chinese hamster; design: host or cells: CHO cells (A.T.C.C. CCl-61) and engineered CHO-Agt cells (from Fargue/Danpure); settings: 100 uM glycolic acid, glyoxylate by LC-MS at 2 hours, read-out: Range of IC50 values calculated from the cellular assays (Assay 3)
T1 sequence (Q9UJM8 1-370): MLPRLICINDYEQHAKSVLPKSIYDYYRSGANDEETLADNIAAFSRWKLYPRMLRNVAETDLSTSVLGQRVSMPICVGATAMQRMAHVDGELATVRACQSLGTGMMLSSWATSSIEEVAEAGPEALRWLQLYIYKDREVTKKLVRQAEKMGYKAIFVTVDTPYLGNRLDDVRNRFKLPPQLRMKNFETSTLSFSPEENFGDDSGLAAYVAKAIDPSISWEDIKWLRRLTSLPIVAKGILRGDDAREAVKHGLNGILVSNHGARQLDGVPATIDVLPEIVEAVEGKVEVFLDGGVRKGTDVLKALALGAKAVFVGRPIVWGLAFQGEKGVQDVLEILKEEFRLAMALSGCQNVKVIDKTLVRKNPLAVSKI
Experimental: Assay 3: GO Cellular Assay: CHO-Agt Cells Assay
CHO cells (A.T.C.C. number CCl-61) and engineered CHO-Agt cells (provided by Dr. Sonia Fargue and Dr. Christopher J. Danpure, Biochem. J. (2006) 394, 409-416) were used as a screening cellular assay for primary compounds. The cells were seeded in 20,000 cell/well in 96 well plate and cultured at 37-C under O2/CO2 (19:1) in Ham's F12 medium (Invitrogen) supplemented with fetal calf serum (10%, v/v), L-glutamine (2 mM), penicillin (100 units/ml) and streptomycin (100 pug/ml). After overnight culture, the cells were treated with various concentrations of inhibitors in the presence of 100 uM glycolic acid in HEPES buffer, pH7.0 (Sigma-Aldrich, Cat #124737). Culture medium was harvested at 2 hours after treatment for glyoxylate analysis and cell viability was measured by Cell Titer-Glo (Fisher Scientific, Cat #. PR-G7570).
The glyoxylate was quantified using LC-MS method. An aliquot of 120 μL medium was removed from each well and protein precipitated by adding 240 μL IS (100 ng/ml 13C2-glyoxylic acid, Sigma-Aldrich, Cat #G755002). The mixture was vortex-mixed well and centrifuged at 3900 rpm for 15 min, 4° C. 100 μL supernatant was then mixed with 10 μL formic acid and 100 μL 400 μM DNPH (2,4-dinitrophenylhydrazine) (Shanghai Runjie Huaxue Shiji Ltd., Cat #A0000436) and the mixture was shaken for 30 minutes. A 3 μL mixture of reaction mixture was injected for LC-MS/MS analysis. (Behnam J T, Williams E L, Brink S, Rumsby G, Danpure C J., “Reconstruction of human hepatocyte glyoxylate metabolic pathways in stably transformed Chinese-hamster ovary cells”, Biochem J. 2006 Mar. 1; 394 (Pt 2):409-16.)

[2] = target: T1, GO; experiment: GO Enzymatic Assay (Assay 1); type: biochemical; design: purchased Novus Biologicals NBP1-72412; settings: Table 4; class symbols without asterisk, GO Enzymatic Assay (Assay 1); read-out: Range
Experimental: Assay 1: GO Enzymatic Assay
GO was incubated with its substrate, glycolate, in 50 mM potassium phosphate buffer, pH 7. […] The enzyme was optimized and the kinetics was determined.
Compound inhibition was determined by adding various concentrations of inhibitors in the GO enzyme assay. The IC50 value for each measured compound was generated from sigmoidal dose-response (variable slope) curves with GraphPad Prism software (GraphPad Software, Inc., San Diego, Calif.) using the percent inhibition of GO activity relative to DMSO control.

SMILES	IC50 [1] [nM]	IC50 [2] [nM]
CCOC(=O)c1[nH]nnc1Sc1nc(-c2ccc(Cl)c(Cl)c2)cs1 [Compound 1, ethyl 4-((4-(3,4-dichlorophenyl)thiazol-2-yl)thio)-1H-1,2,3-triazole-5-carboxylate]	> 10000	
O=C(OC1CC1)c1[nH]nnc1Oc1ccc2cc(Br)ccc2c1 [Compound 110, cyclopropyl 4-((6-bromonaphthalen-2-yl)oxy)-1H-1,2,3-triazole-5-carboxylate]	1000 to 5000	
CC(C)OC(=O)OCOC(=O)c1[nH]nnc1O[C@H]1CC[C@H](c2ccc(OC(F)(F)F)cc2)CC1 [Compound 302, ((isopropoxycarbonyl)oxy)methyl 4-(((trans)-4-(4-(trifluoromethoxy)phenyl)cyclohexyl)oxy)-1H-1,2,3-triazole-5-carboxylate]	< 1000	
N#Cc1ccc([C@H]2C[C@H](Sc3nn[nH]c3C(=O)O)C2)cc1 [Compound 420, 4-(((trans)-3-(4-cyanophenyl)cyclobutyl)thio)-1H-1,2,3-triazole-5-carboxylic acid 2,2,2-trifluoroacetate]		< 100
O=C(O)c1[nH]nnc1S[C@H]1CC[C@H](c2ccc(OC(F)(F)F)cc2)CC1 [Compound 422, 4-(((trans)-4-(4-(trifluoromethoxy)phenyl)cyclohexyl)thio)-1H-1,2,3-triazole-5-carboxylic acid]		< 100
N#Cc1ccc(COc2cc(Oc3nn[nH]c3C(=O)O)ccc2Cl)cc1 [Compound 423, 4-(4-chloro-3-((4-cyanobenzyl)oxy)phenoxy)-1H-1,2,3-triazole-5-carboxylic acid]		< 100
O=C(O)c1[nH]nnc1O[C@H]1CC[C@H](c2ccc(F)cc2F)CC1 [Compound 424, 4-(((trans)-4-(2,4-difluorophenyl)cyclohexyl)oxy)-1H-1,2,3-triazole-5-carboxylic acid 2,2,2-trifluoroacetate]		< 100
O=C(O)c1[nH]nnc1O[C@H]1CC[C@H](c2ccc(-c3nnc[nH]3)cc2)CC1 [Compound 425, 4-(((trans)-4-(4-(4H-1,2,4-triazol-3-yl)phenyl)cyclohexyl)oxy)-1H-1,2,3-triazole-5-carboxylic acid]		< 100
O=C(O)c1[nH]nnc1O[C@H]1C[C@H](c2ccc(N3CCCCC3)cc2)C1 [Compound 426, 4-((trans)-3-(4-(piperidin-1-yl)phenyl)cyclobutoxy)-1H-1,2,3-triazole-5-carboxylic acid 2,2,2-trifluoroacetate]		< 100
O=C(O)c1[nH]nnc1S[C@H]1CC[C@H](c2cc(Cl)ccc2OC(F)(F)F)CC1 [Compound 430, 4-(((trans)-4-(5-chloro-2-(trifluoromethoxy)phenyl)cyclohexyl)thio)-1H-1,2,3-triazole-5-carboxylic acid]		< 100
O=C(O)c1[nH]nnc1O[C@H]1CC[C@H](c2ccc(-c3nncs3)cc2)CC1 [Compound 431, 4-(((trans)-4-(4-(1,3,4-thiadiazol-2-yl)phenyl)cyclohexyl)oxy)-1H-1,2,3-triazole-5-carboxylic acid 2,2,2-trifluoroacetate]		< 100
O=C(O)c1[nH]nnc1S[C@H]1CC[C@H](c2ccc(N3CCCCC3)cc2)CC1 [Compound 432, 4-(((trans)-4-(4-(piperidin-1-yl)phenyl)cyclohexyl)thio)-1H-1,2,3-triazole-5-carboxylic acid 2,2,2-trifluoroacetate]		< 100
O=C(O)c1[nH]nnc1O[C@H]1CC[C@H](c2ccc(-c3nnco3)cc2)CC1 [Compound 433, 4-(((trans)-4-(4-(1,3,4-oxadiazol-2-yl)phenyl)cyclohexyl)oxy)-1H-1,2,3-triazole-5-carboxylic acid]		< 100
O=C(O)c1[nH]nnc1S[C@H]1C[C@H](c2ccc(N3CCCCC3)cc2)C1 [Compound 434, 4-(((trans)-3-(4-(piperidin-1-yl)phenyl)cyclobutyl)thio)-1H-1,2,3-triazole-5-carboxylic acid 2,2,2-trifluoroacetate]		< 100
O=C(O)c1[nH]nnc1O[C@H]1CC[C@H](c2ccc(N3CCCCC3)cc2)CC1 [Compound 436, 4-(((trans)-4-(4-(piperidin-1-yl)phenyl)cyclohexyl)oxy)-1H-1,2,3-triazole-5-carboxylic acid 2,2,2-trifluoroacetate]		< 100
CS(=O)(=O)c1ccc([C@H]2CC[C@H](Oc3nn[nH]c3C(=O)O)CC2)cc1 [Compound 438, 4-(((trans)-4-(4-(methylsulfonyl)phenyl)cyclohexyl)oxy)-1H-1,2,3-triazole-5-carboxylic acid]		< 100
CS(=O)(=O)c1ccc([C@H]2CC[C@H](Sc3nn[nH]c3C(=O)O)CC2)cc1 [Compound 439, 4-(((trans)-4-(4-(methylsulfonyl)phenyl)cyclohexyl)thio)-1H-1,2,3-triazole-5-carboxylic acid 2,2,2-trifluoroacetate]		< 100
O=C(O)c1[nH]nnc1O[C@H]1CC[C@H](c2ccc(N3CCCCC3)c(Cl)c2)CC1 [Compound 441, 4-(((trans)-4-(3-chloro-4-(piperidin-1-yl)phenyl)cyclohexyl)oxy)-1H-1,2,3-triazole-5-carboxylic acid 2,2,2-trifluoroacetate]		< 100
O=C(O)c1[nH]nnc1Oc1ccc(Cl)c(OC2CC2)c1 [Compound 445, 4-(4-chloro-3-cyclopropoxyphenoxy)-1H-1,2,3-triazole-5-carboxylic acid]		< 100
OCc1[nH]nnc1S[C@H]1CC[C@@H](c2ccc(OC(F)(F)F)cc2)CC1 [Compound 489, (4-(((cis)-4-(4-(trifluoromethoxy)phenyl)cyclohexyl)thio)-1H-1,2,3-triazol-5-yl)methanol]	1000 to 5000	
OCc1[nH]nnc1Oc1ccc(-c2ccc(Cl)cc2)cc1 [Compound 493-2, (4-((4′-chloro-[1,1′-biphenyl]-4-yl)oxy)-1H-1,2,3-triazol-5-yl)methanol]	1000 to 5000	
OCc1[nH]nnc1OC1CCN(c2cc(Cl)cc(Cl)c2)CC1 [Compound 494, (4-((1-(3,5-dichlorophenyl)piperidin-4-yl)oxy)-1H-1,2,3-triazol-5-yl)methanol]	5000 to 10000	
OCc1[nH]nnc1SC1CCN(c2cc(Cl)cc(Cl)c2)CC1 [Compound 495, (4-((1-(3,5-dichlorophenyl)piperidin-4-yl)thio)-1H-1,2,3-triazol-5-yl)methanol]	> 10000	
OCc1[nH]nnc1Sc1ccc(-c2ccc(OC(F)(F)F)cc2)cc1 [Compound 497, (4-((4′-(trifluoromethoxy)-[1,1′-biphenyl]-4-yl)thio)-1H-1,2,3-triazol-5-yl)methanol]	> 10000	
O=C(O)c1[nH]nnc1COC1CCN(c2cc(Cl)cc(Cl)c2)CC1 [Example 477, 4-(((1-(3,5-dichlorophenyl)piperidin-4-yl)oxy)methyl)-1H-1,2,3-triazole-5-carboxylic acid]		< 100
O=C(O)c1[nH]nnc1COC1CCN(c2cc(Cl)ccc2Cl)CC1 [Example 481, 4-(((1-(2,5-dichlorophenyl)piperidin-4-yl)oxy)methyl)-1H-1,2,3-triazole-5-carboxylic acid]		100 to 1000
